Each compound was assayed against factor B (Homo sapiens, UniProt P00751) (assay: factor B inhibition assay of Biological Example 1). Conditions: IC50 (nM), assay of Biological Example 1 (Table 1).
factor B, sequence (P00751 260-764 limits assumed): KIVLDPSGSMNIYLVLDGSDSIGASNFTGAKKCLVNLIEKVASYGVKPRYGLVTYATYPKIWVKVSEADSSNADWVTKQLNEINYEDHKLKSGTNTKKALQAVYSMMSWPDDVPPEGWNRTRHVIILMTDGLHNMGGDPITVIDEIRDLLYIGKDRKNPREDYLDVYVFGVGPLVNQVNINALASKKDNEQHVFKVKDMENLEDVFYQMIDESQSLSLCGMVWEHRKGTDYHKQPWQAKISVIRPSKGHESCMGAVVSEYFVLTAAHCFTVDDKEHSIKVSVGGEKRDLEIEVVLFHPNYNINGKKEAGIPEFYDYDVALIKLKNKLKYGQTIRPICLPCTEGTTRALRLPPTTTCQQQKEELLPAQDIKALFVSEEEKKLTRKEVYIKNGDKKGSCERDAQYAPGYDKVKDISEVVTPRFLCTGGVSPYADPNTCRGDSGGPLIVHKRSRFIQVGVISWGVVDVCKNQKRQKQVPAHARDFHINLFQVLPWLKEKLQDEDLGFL
factor B, sequence (Q91132 23-649 partner limits assumed): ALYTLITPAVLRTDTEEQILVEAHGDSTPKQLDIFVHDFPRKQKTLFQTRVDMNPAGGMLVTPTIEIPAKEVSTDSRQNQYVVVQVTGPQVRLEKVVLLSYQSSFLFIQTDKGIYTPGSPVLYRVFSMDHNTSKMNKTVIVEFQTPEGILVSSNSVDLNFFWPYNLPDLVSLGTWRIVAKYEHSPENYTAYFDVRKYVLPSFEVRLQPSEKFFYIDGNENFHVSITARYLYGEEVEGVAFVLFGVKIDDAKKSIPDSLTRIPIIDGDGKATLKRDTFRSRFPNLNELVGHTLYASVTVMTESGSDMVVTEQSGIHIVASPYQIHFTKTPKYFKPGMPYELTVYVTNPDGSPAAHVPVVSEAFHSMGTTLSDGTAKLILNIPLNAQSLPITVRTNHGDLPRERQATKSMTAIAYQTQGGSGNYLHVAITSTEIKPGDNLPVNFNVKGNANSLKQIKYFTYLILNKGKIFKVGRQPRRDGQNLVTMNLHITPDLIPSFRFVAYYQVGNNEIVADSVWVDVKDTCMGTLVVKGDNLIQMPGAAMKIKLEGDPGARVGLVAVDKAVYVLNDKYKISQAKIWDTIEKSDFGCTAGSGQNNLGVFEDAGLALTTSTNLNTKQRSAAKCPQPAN
factor B, sequence (Q91132 733-984 partner limits assumed): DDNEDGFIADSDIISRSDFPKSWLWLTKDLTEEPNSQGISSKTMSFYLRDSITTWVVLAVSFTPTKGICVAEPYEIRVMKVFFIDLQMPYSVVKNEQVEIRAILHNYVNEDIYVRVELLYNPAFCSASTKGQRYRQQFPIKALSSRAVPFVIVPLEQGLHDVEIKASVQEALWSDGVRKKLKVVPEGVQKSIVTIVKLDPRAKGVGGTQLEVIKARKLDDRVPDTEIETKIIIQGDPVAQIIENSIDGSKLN
factor B, sequence (Q91132 1264-1642 partner limits assumed): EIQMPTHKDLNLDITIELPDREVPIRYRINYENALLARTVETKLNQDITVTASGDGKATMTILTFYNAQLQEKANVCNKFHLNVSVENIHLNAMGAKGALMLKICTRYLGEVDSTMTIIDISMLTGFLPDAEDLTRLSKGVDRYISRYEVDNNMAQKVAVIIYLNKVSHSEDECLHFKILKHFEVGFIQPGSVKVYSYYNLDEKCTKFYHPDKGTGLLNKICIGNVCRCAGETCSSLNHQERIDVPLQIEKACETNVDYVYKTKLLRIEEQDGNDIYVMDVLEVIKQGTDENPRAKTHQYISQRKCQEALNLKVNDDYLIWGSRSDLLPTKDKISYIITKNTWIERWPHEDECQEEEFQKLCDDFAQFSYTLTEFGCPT
Assay type: biochemical
Design: CVF-Bb complex prepared from purified cobra venom factor (1 μM), recombinant human complement factor B; made in house; host or cells: drosophila cells (factor B); E. coli (factor D used to form the complex)
For `Cc1cc(OC(F)F)c(C(NCCN)c2nc3cc(C#N)ccc3[nH]2)c2cc[nH]c12` (racemic) [3-B a) 2nd compound, (±)-2-(((2-aminoethyl)amino)(5-(difluoromethoxy)-7-methyl-1H-indol-4-yl)methyl)-1H-benzo[d]imidazole-5-carbonitrile], the IC50 was 2700 nM. `Cc1cc(OC(F)F)c(C(C)(O)c2nc3cc(C#N)ccc3[nH]2)c2cc[nH]c12` (racemic) [6-B b) (+), (+)-2-(1-(5-(difluoromethoxy)-7-methyl-1H-indol-4-yl)-1-hydroxyethyl)-1H-benzo[d]imidazole-5-carbonitrile] was tested, and the IC50 was 140 nM. `Cc1cc(OC(F)F)c(C(C)(O)c2nc3cc(C#N)ccc3[nH]2)c2cc[nH]c12` (racemic) [6-B b) (−), (−)-2-(1-(5-(difluoromethoxy)-7-methyl-1H-indol-4-yl)-1-hydroxyethyl)-1H-benzo[d]imidazole-5-carbonitrile] was tested, and the IC50 was 110 nM. `COc1cc(C)c2[nH]ccc2c1C(C)(O)c1nc2cc(C#N)ccc2[nH]1` (racemic) [26-C b) (+), (+)-2-(1-hydroxy-1-(5-methoxy-7-methyl-1H-indol-4-yl)ethyl)-1H-benzo[d]imidazole-5-carbonitrile] was tested, and the IC50 was 50 nM. With `COc1cc(C)c2[nH]ccc2c1C(C)(O)c1nc2cc(C#N)ccc2[nH]1` (racemic) [26-C b) (−), (−)-2-(1-hydroxy-1-(5-methoxy-7-methyl-1H-indol-4-yl)ethyl)-1H-benzo[d]imidazole-5-carbonitrile] the IC50 was 80 nM. `COc1cc(C)c2[nH]ccc2c1C(OC)c1nc2cc(C#N)ccc2[nH]1` (racemic) [30-B b) (+), (+)-2-(methoxy(5-methoxy-7-methyl-1H-indol-4-yl)methyl)-1H-benzo[d]imidazole-5-carbonitrile] showed an IC50 of 220 nM. Work on `COc1cc(C)c2[nH]ccc2c1C(OC)c1nc2cc(C#N)ccc2[nH]1` (racemic) [30-B b) (−), (−)-2-(methoxy(5-methoxy-7-methyl-1H-indol-4-yl)methyl)-1H-benzo[d]imidazole-5-carbonitrile] yielded an IC50 of 160 nM. Compound `COC(=O)COC(c1nc2cc(C#N)ccc2[nH]1)(c1c(OC)cc(C)c2[nH]ccc12)C(F)(F)F` (racemic) [35-B a), (±)-Methyl 2-(1-(5-cyano-1H-benzo[d]imidazol-2-yl)-2,2,2-trifluoro-1-(5-methoxy-7-methyl-1H-indol-4-yl)ethoxy)acetate] has an IC50 of 70 nM. Work on `COc1cc(C)c2[nH]ccc2c1C(N)(c1nc2cc(C#N)ccc2[nH]1)C(F)(F)F` (racemic) [36-E b) (+), (+)-2-(1-amino-2,2,2-trifluoro-1-(5-methoxy-7-methyl-1H-indol-4-yl)ethyl)-1H-benzo[d]imidazole-5-carbonitrile] yielded an IC50 of 50 nM. Compound `CCCc1cc(C)c2[nH]ccc2c1C(C)(O)c1nc2cc(C#N)ccc2[nH]1` (racemic) [79-B a) 2nd compound, (±)-2-(1-hydroxy-1-(7-methyl-5-propyl-1H-indol-4-yl)ethyl)-1H-benzo[d]imidazole-5-carbonitrile] has an IC50 of 150 nM. With `Cc1cc(C)c2[nH]ccc2c1C(C)(N)c1nc2cc(C#N)ccc2[nH]1` (racemic) [101-E b) (+), (+)-2-(1-amino-1-(5,7-dimethyl-1H-indol-4-yl)ethyl)benzo[d]imidazole-5-carbonitrile] the IC50 was 80 nM. With `Cc1cc(C)c2[nH]ccc2c1C(C)(N)c1nc2cc(C#N)ccc2[nH]1` (racemic) [101-E b) (−), (−)-2-(1-amino-1-(5,7-dimethyl-1H-indol-4-yl)ethyl)benzo[d]imidazole-5-carbonitrile] the IC50 was 50 nM. `COc1cc(C)c2[nH]ccc2c1C(C)(O)c1nc2cc(C#N)ccc2o1` (racemic) [126-C a), (±)-2-(1-hydroxy-1-(5-methoxy-7-methyl-1H-indol-4-yl)ethyl)benzo[d]oxazole-5-carbonitrile] showed an IC50 of 8 nM. Work on `COc1cc(C)c2[nH]ccc2c1C(C)(OC)c1nc2cc(C#N)ccc2o1` (racemic) [127-B a), (±)-2-(1-methoxy-1-(5-methoxy-7-methyl-1H-indol-4-yl)ethyl)benzo[d]oxazole-5-carbonitrile] yielded an IC50 of 330 nM.

From patent US9056874B2, “Complement pathway modulators and uses thereof” (NOVARTIS AG, priority 2012, dated 2015)
